pIC50: −log10 of the molar value.
Biological target: BTK (Homo sapiens (Human), UniProt Q06187)
Test: Z'-LYTE kinase inhibition assay against BTK
Format: biochemical
Settings: for inhibition at 0.1 µM: compound at 100 nM, ATP concentration at Km; for pIC50: series of concentrations, GraphPad Prism 5
In short: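 Z′-LYTE FRET readout: 1.04-10.4 ng BTK with 2 μM Tyr 01 peptide, ATP at Km, in 50 mM HEPES pH 7.5, 10 mM MgCl2, 1 mM EGTA, 0.01% BRIJ-35, 1% DMSO. 60 min kinase reaction at room temperature, then 60 min development; IC50 from 10-point, 3-fold titrations.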

Sequence of BTK (Q06187 whole entry): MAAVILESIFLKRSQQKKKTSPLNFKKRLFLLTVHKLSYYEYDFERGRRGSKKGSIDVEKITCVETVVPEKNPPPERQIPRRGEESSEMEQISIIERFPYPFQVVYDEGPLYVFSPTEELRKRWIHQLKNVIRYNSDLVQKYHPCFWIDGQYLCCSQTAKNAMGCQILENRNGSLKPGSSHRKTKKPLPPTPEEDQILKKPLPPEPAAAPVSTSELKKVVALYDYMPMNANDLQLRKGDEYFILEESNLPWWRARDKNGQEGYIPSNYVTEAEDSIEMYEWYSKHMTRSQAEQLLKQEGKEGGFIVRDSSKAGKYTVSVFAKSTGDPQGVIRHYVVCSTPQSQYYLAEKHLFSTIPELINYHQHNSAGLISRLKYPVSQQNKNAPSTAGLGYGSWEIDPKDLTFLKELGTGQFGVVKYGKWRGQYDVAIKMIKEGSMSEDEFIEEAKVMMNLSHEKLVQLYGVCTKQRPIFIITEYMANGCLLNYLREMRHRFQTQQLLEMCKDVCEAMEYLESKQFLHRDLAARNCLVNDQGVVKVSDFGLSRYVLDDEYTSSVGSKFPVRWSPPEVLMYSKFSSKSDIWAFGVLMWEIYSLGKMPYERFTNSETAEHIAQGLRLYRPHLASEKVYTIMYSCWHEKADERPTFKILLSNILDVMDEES

SMILES	inhibition at 0.1 µM	pIC50
C=CC(=O)Nc1cccc(-c2cc(-c3ccc(C(=O)Nc4cc(C(F)(F)F)ccn4)cc3F)cc3cncnc23)c1 [C129, 4-(8-(3-acrylamidophenyl)quinazolin-6-yl)-3-fluoro-N-(4-(trifluoromethyl)pyridin-2-yl)benzamide]	> 50%	> 7.00
C=CC(=O)Nc1cccc(-n2c(-c3ccccc3)nc3cncnc32)c1 [C014, N-(3-(8-phenyl-9H-purin-9-yl)phenyl)acrylamide]	< 50%	
C=CC(=O)Nc1cccc(-c2ccc(-c3ccc(C(=O)Nc4ccccn4)cc3)c3cncnc23)c1 [C039, 4-(8-(3-acrylamidophenyl)quinazolin-5-yl)-N-(pyridin-2-yl)benzamide]	< 50%	
C=CC(=O)N1CCC(c2cc(-c3ccc(Oc4ccccn4)cc3F)c(N)c3cncnc23)C1 (stereo not shown) [C174, 1-(3-(5-amino-6-(2-fluoro-4-(pyridin-2-yloxy)phenyl)quinazolin-8-yl)pyrrolidin-1-yl)prop-2-en-1-one]	< 50%	
C=CC(=O)Nc1cccc(-c2cc(-c3ccc(Oc4ccccn4)c(F)c3)cc3cnc(N)nc23)c1 [C158, N-(3-(2-amino-6-(3-fluoro-4-(pyridin-2-yloxy)phenyl)quinazolin-8-yl)phenyl)acrylamide]	> 50%	> 7.00
C=CC(=O)N1CCC(c2cc(-c3ccc(C(=O)Nc4cccc(C(F)(F)F)c4)cc3)n3cnccc23)C1 (stereo not shown) [C058, 4-(5-(1-acryloylpyrrolidin-3-yl)pyrrolo[1,2-c]pyrimidin-7-yl)-N-(3-(trifluoro-methyl)phenyl)benzamide]	< 50%	
C=CC(=O)Nc1cccc(-c2cc(-c3ccc(C(=O)Nc4ccccn4)cc3Cl)c(N)c3cncnc23)c1 [C190, 4-(8-(3-acrylamidophenyl)-5-aminoquinazolin-6-yl)-3-chloro-N-(pyridin-2-yl)benzamide]	> 50%	> 7.00
C=CC(=O)N1CCC(c2cc(-c3ccc(C(=O)Nc4cc(C(F)(F)F)ccn4)cc3F)n3cnccc23)C1 (stereo not shown) [C130, 4-(5-(1-acryloylpyrrolidin-3-yl)pyrrolo[1,2-c]pyrimidin-7-yl)-3-fluoro-N-(4-(trifluoromethyl)pyridin-2-yl)benzamide]	< 50%	
C=CC(=O)Nc1cccc(-c2cc(-c3ccc(C(=O)Nc4ccccn4)cc3)c(N)c3cnc(N)nc23)c1 [C178, 4-(8-(3-acrylamidophenyl)-2,5-diamino-quinazolin-6-yl)-N-(pyridin-2-yl)benzamide]	< 50%	
C=CC(=O)Nc1cccc(-c2cc(-c3ccccc3Cl)cc3cnc(-c4ccccc4)nc23)c1 [C002, N-(3-(6-(2-chlorophenyl)-2-phenylquinazolin-8yl)phenyl)acrylamide]	< 50%	
C=CC(=O)Nc1cccc(-c2cc(-c3ccc(Nc4ccccc4)cc3)cc3cncnc23)c1 [C025, N-(3-(6-(4-(phenylamino)phenyl)quinazolin-8-yl)phenyl)acrylamide]	< 50%	
C=CC(=O)N1CCC(c2cc(-c3ccc(Oc4ccccn4)cc3)c(N)c3cncnc23)C1 (stereo not shown) [C181, 1-(3-(5-amino-6-(4-(pyridin-2-yloxy)phenyl)quinazolin-8-yl)pyrrolidin-1-yl)prop-2-en-1-one]	< 50%	
C=CC(=O)Nc1cccc(-c2cc(-c3ccc(Oc4cc(C(N)=O)ccn4)cc3F)cc3cncnc23)c1 [C194, 2-(4-(8-(3-acrylamidophenyl)quinazolin-6-yl)-3-fluorophenoxy)isonicotinamide]	> 50%	> 7.00
C=CC(=O)N1CCC(n2c(-c3ccccc3)nc3cncnc32)C1 (stereo not shown) [C021, 1-(3-(8-phenyl-9H-purin-9-yl)pyrrolidin-1-yl)prop-2-en-1-one]	< 50%	
CC#CC(=O)N1CCC(c2nc(-c3ccc(C(=O)Nc4cc(OC)ccn4)cc3)n3c(N)nccc23)C1 (stereo not shown) [C241, 4-(5-amino-1-(1-(but-2-ynoyl)pyrrolidin-3-yl)imidazo[1,5-c]pyrimidin-3-yl)-N-(4-methoxypyridin-2-yl)benzamide]		> 7.00
C=CC(=O)Nc1cccc(-c2cc(-c3ccc(Oc4ccccc4)cc3)n3cnccc23)c1 [C057, N-(3-(7-(4-phenoxyphenyl)pyrrolo[1,2-c]pyrimidin-5-yl)phenyl)acrylamide]	< 50%	
CC#CC(=O)N1CCC(c2nc(-c3ccc(Oc4cc(C(F)(F)F)ccn4)c(OC)c3)n3c(N)nccc23)C1 (stereo not shown) [C222, 1-(3-(5-amino-3-(3-methoxy-4-((4-(trifluoro-methyl)pyridin-2-yl)oxy)phenyl)imidazo[1,5-c]pyrimidin-1-yl)pyrrolidin-1-yl)but-2-yn-1-one]	> 50%	
C=CC(=O)Nc1cccc(-c2cc(-c3ccc(C(=O)Nc4cc(C5CC5)ccn4)c(OC)c3)cc3cncnc23)c1 [C140, 4-(8-(3-acrylamidophenyl)quinazolin-6-yl)-N-(4-cyclopropylpyridin-2-yl)-2-methoxybenzamide]	< 50%	

The next lines start with the values.

inhibition at 0.1 µM	pIC50	SMILES
< 50%		C=CC(=O)N1CCC(c2cc(-c3ccc(Oc4ccccn4)c(OC)c3)cc3cncnc23)C1 (stereo not shown) [C146, 1-(3-(6-(3-methoxy-4-(pyridin-2-yloxy)phenyl)quinazolin-8-yl)pyrrolidin-1-yl)prop-2-en-1-one]
< 50%		C=CC(=O)N1CCC(c2cc(-c3ccccc3F)cc3cnc(N)nc23)C1 (stereo not shown) [C085, 1-(3-(2-amino-6-(2-fluorophenyl)quinazolin-8-yl)pyrrolidin-1-yl)prop-2-en-1-one]
< 50%		C=CC(=O)Nc1cccc(-c2cc(-c3ccc(Oc4ccccc4)cc3)c(N)c3cncnc23)c1 [C182, N-(3-(5-amino-6-(4-phenoxyphenyl)quinazolin-8-yl)phenyl)acrylamide]
> 50%		C=CC(=O)N1CCC(c2cc(-c3ccccc3)cc3cncnc23)C1 (stereo not shown) [C047, 1-(3-(6-phenylquinazolin-8-yl)pyrrolidin-1-yl)prop-2-en-1-one]
> 50%		C=CC(=O)N1CCC(c2cc(-c3ccc(C(=O)Nc4cc(C(F)(F)F)ccn4)cc3)n3cnccc23)C1 (stereo not shown) [C136, 4-(5-(1-acryloylpyrrolidin-3-yl)pyrrolo[1,2-c]pyrimidin-7-yl)-N-(4-(trifluoromethyl)pyridin-2-yl)benzamide]
< 50%		C=CC(=O)N1CCC(c2cc(-c3cncc(C(F)(F)F)c3)cc3cncnc23)C1 (stereo not shown) [C066, 1-(3-(6-(5-(trifluoromethyl)pyridin-3-yl)quinazolin-8-yl)pyrrolidin-1-yl)prop-2-en-1-one]
> 50%	> 7.00	C=CC(=O)Nc1cccc(-c2cc(-c3ccc(C(=O)Nc4ccccn4)cc3C#N)cc3cncnc23)c1 [C201, 4-(8-(3-acrylamidophenyl)quinazolin-6-yl)-3-cyano-N-(pyridin-2-yl)benzamide]
< 50%		C=CC(=O)N1CCCC(c2ccc(-c3ccc(C(=O)Nc4ccccn4)cc3)c3cncnc23)C1 (stereo not shown) [C037, 4-(8-(1-acryloylpiperidin-3-yl)quinazolin-5-yl)-N-(pyridin-2-yl)benzamide]
> 50%	> 7.00	C=CC(=O)N1CCC(c2nc(-c3ccc(Oc4ccccn4)c(OC)c3)n3c(N)nccc23)C1 (stereo not shown) [C212, 1-(3-(5-amino-3-(3-methoxy-4-(pyridin-2-yloxy)phenyl)imidazo[1,5-c]pyrimidin-1-yl)pyrrolidin-1-yl)prop-2-en-1-one]
< 50%		C=CC(=O)N1CCC(c2cc(-c3ccc(Oc4ccccc4)nc3)cc3cncnc23)C1 (stereo not shown) [C077, 1-(3-(6-(6-phenoxypyridin-3-yl)quinazolin-8-yl)pyrrolidin-1-yl)prop-2-en-1-one]
> 50%	> 7.00	C=CC(=O)N1CCC(c2nc(-c3ccc(Oc4ccccn4)cc3)n3c(N)nccc23)C1 (racemic) [C224, (R/S)-1-(3-(5-amino-3-(4-(pyridin-2-yloxy)phenyl)imidazo[1,5-c]pyrimidin-1-yl)pyrrolidin-1-yl)prop-2-en-1-one]
< 50%		C=CC(=O)Nc1cccc(-c2cc(-c3ccc(C(=O)Nc4cccnc4)cc3)cc3cncnc23)c1 [C113, 4-(8-(3-acrylamidophenyl)quinazolin-6-yl)-N-(pyridin-3-yl)benzamide]
< 50%		C=CC(=O)Nc1cccc(-c2cc(-c3ccc(C(=O)Nc4ccccn4)cc3F)c(N)c3cncnc23)c1 [C177, 4-(8-(3-acrylamidophenyl)-5-aminoquinazolin-6-yl)-3-fluoro-N-(pyridin-2-yl)benzamide]
> 50%	> 7.00	C=CC(=O)Nc1cccc(-c2cc(-c3ccccc3)cc3cncnc23)c1 [C004, N-(3-(6-phenylquinazolin-8-yl)phenyl)acrylamide]
< 50%		C=CC(=O)N1CCC(c2cc(-c3ccc(C(=O)Nc4ccccc4)cc3)cc3cncnc23)C1 (stereo not shown) [C062, 4-(8-(1-acryloylpyrrolidin-3-yl)quinazolin-6-yl)-N-phenylbenzamide]
< 50%		C=CC(=O)N1CCC(c2cc(-c3ccc(C(=O)Nc4ccccn4)cc3F)cc3cncnc23)C1 (stereo not shown) [C094, 4-(8-(1-acryloylpyrrolidin-3-yl)quinazolin-6-yl)-3-fluoro-N-(pyridin-2-yl)benzamide]
< 50%		C=CC(=O)N1CCCC(c2cc(-c3ccc(Oc4ccccc4)cc3)cc3c(N)ncnc23)C1 (stereo not shown) [C030, 1-(3-(4-amino-6-(4-phenoxyphenyl)quinazolin-8-yl)piperidin-1-yl)prop-2-en-1-one]
< 50%		C=CC(=O)Nc1cccc(-c2cc(-c3ccccc3)cc3c(N)ncnc23)c1 [C016, N-(3-(4-amino-6-phenylquinazolin-8-yl)phenyl)acrylamide]
< 50%		C=CC(=O)Nc1cccc(-c2cc(-c3ccnc(C(F)(F)F)c3)cc3cncnc23)c1 [C018, N-(3-(6-(2-(trifluoromethyl)pyridin-4-yl)quinazolin-8-yl)phenyl)acrylamide]
< 50%		C=CC(=O)Nc1cccc(-c2cc(-c3ccc(C(=O)Nc4ccccc4)nc3)cc3cnc(N)nc23)c1 [C059, 5-(8-(3-acrylamidophenyl)-2-aminoquinazolin-6-yl)-N-phenylpicolinamide]
